Read-outs that look alike come from different tables or passages of the source. Ends that are not written are not given here.
Columns and labels:
[1] = test system: Sprague-Dawley rats; assay type: in vivo, rat; conditions: for HR / MAP / RPP: CAP 0.3 mg/kg, CsA 2.5 mg/kg, V1-cal 1 mg/kg, given 5 minutes prior to reperfusion
[2] = test system: Sprague-Dawley TRPV1 knockout rats; experiment: In vivo LAD ischemia-reperfusion injury model in TRPV1 knockout rats; design: species or system rat
[3] = test system: isolated rat hearts; experiment: Isolated heart model of ischemia-reperfusion injury; conditions: for heart rate when infused: 10 minutes prior to ischemia
[4] = Peptide stability, trypsin digestion analyzed by RP-HPLC; assay type: in vitro ADME; conditions: 20 minutes after exposure to trypsin; read-out: degraded
Method: FIG. 12: Determination of peptide stability. A. At baseline a single peak at 5 minutes was noted when V1-cal was analyzed by RP-HPLC (arrow in green). B. 10 minutes after trypsin digestion, V1-cal is still detected (arrow in green), yet is 75% degraded with the with multiple peaks detected as degradation products of V1-cal (black arrows). C. 20 minutes after exposure to trypsin, V1-cal is 100% degraded (with no peak at 5 minutes and multiple other peaks shown with black arrows detected).

[5] = molecular target: T1, TRPV1 (Homo sapiens, UniProt Q8NER1); conditions: in vivo; cited from earlier work
T1 construct: host or cells: human trial subjects (endogenous)

[6] = test system: Sprague-Dawley rats; experiment: In vivo rat remote conditioning (abdominal incision before LAD ischemia-reperfusion)
[7] = test system: primary neonatal cardiomyocytes (PNCM); experiment: Mitochondrial membrane potential by live cell imaging (TMRE/CMXRos), normoxia; assay type: cell-based, rat
Source text: • Primary Neonatal Cardiomyocyte Isolation: Rat pups 1-3 days of age were used for primary neonatal cardiomyocyte isolation as previously described (Disatnik et al., Journal of the American Heart Association, 2013. 2:e000461). • Peptide Synthesis: Peptides were synthesized using microwave chemistry on a Liberty Microwave Peptide Synthesizer (CEM Corporation) (Gross et al., Basic Research in Cardiology, 2013. 108:381). Peptides were synthesized as one polypeptide with TAT47-57 carrier in the following order: N-terminus-TAT47-57-spacer (Gly-Gly)-cargo-C-terminus. • RT PCR: Total RNA was isolated from PNCM on day 4 in culture and H9C2 cells at passages 18, 23, 24 (Ambion RNAqueous kit). To reduce DNA contamination in the preparations, the isolated total RNA was subject to precipitation with lithium chloride and DNase digestion (Ambion DNase free). cDNA was generated from mRNA using Takara Primescript cDNA synthesis kit with oligo dT primers. Previously described primers, forward: […] (SEQ ID NO:112) and reverse: […] […] The amplified PCR product was subcloned into the pCR TOPO vector (Invitrogen) and sequenced. • Quantitative PCR: cDNA from mRNA was generated from H9C2, PNCM, and heart tissues (RA, LA, RV, LV) as described above. […]

[8] = test system: Sprague-Dawley rats
[9] = test system: H9C2 cells; experiment: H9C2 cell model of ischemia-reoxygenation, lactate dehydrogenase release; assay type: cell-based
[10] = 15 min Ischemia, capsaicin 0.1 mg/kg
[11] = 15 min Ischemia, capsaicin 0.3 mg/kg
[12] = 15 min Ischemia, capsaicin 1.0 mg/kg
[13] = 15 min Ischemia, capsaicin 3.0 mg/kg
[14] = 2 hrs Reperfusion, capsaicin 0.1 mg/kg
[15] = 2 hrs Reperfusion, capsaicin 0.3 mg/kg
[16] = 2 hrs Reperfusion, capsaicin 1.0 mg/kg
[17] = 2 hrs Reperfusion, capsaicin 3.0 mg/kg

T1 sequence (Q8NER1 whole entry): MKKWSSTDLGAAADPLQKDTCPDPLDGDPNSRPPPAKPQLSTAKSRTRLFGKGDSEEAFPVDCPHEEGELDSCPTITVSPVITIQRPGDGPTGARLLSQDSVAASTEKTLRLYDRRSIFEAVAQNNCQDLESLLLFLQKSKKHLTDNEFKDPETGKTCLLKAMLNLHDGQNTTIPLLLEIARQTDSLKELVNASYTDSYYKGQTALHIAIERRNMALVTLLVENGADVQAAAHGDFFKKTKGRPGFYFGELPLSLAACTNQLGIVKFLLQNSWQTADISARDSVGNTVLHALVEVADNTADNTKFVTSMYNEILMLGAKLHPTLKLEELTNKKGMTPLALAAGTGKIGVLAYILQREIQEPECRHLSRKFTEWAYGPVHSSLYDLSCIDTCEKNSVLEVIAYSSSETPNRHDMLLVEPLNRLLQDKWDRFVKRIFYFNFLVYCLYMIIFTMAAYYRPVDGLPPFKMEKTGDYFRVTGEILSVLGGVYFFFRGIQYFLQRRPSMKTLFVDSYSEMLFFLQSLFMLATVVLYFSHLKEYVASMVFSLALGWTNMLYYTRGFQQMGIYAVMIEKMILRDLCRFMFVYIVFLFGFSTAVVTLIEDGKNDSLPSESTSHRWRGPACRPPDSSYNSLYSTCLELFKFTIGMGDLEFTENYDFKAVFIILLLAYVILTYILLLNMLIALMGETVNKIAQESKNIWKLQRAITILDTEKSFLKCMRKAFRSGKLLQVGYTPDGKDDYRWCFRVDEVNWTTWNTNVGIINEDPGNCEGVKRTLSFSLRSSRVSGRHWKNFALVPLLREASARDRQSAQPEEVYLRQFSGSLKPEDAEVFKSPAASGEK

## YGRKKRRQRRRGGRAITILDTEKS [V1-cal]
[1]; 15 min Ischemia
  HR: 432 ± 10 beats/min
  MAP: 110 ± 5 mmHg
  RPP: 47 ± 3 mmHg/1000
[1]; 2 hrs Reperfusion
  HR: 389 ± 15 beats/min
  MAP: 68 ± 5 mmHg
  RPP: 26 ± 3 mmHg/1000
[1]; Baseline
  HR: 428 ± 6 beats/min
  MAP: 115 ± 5 mmHg
  RPP: 49 ± 3 mmHg/1000
[2]; 15 min Ischemia
  HR: 446 ± 13 beats/min
  MAP: 114 ± 7 mmHg
  RPP: 56 ± 4 mmHg/1000
  TIME: 37.1 ± 0.1
[2]; 2 hrs Reperfusion
  MAP: 84 ± 8 mmHg
  RPP: 40 ± 4 mmHg/1000
  TIME: 37 ± 0.1
[2]; Baseline
  HR: 439 ± 12 beats/min
  MAP: 123 ± 6 mmHg
  RPP: 61 ± 4 mmHg/1000
  TIME: 36.9 ± 0.2
[3]
  heart rate when infused: neither peptide had any effects on heart rate
[4]
  metabolised at 20 min: 100%

## CC(=O)Nc1nc2c(Oc3cc(-c4ccc(C(F)(F)F)cc4)ncn3)cccc2s1 [AMG517]
[5]
  adverse effect in human clinical trials: caused hyperthermia

## YGRKKRRQRRRGGAIIITILDTEIS [A5-cal]
[3]
  heart rate when infused: neither peptide had any effects on heart rate

## Oc1cc2c(cc1O)CN(C(=S)NCCc1ccc(Cl)cc1)CCC2 [capsazepine]
[6]; 3 mg/kg, internal jugular vein, 10 minutes before the incision
  effect on incision-induced infarct size reduction: blocked
[6]; 15 min Ischemia
  HR (heart rate): 396 ± 10 beats/min
  MAP (mean arterial pressure): 115 ± 9 mmHg
  RPP (rate pressure product): 52 ± 5 mmHg/1000
[6]; 2 hrs Reperfusion
  HR (heart rate): 374 ± 5 beats/min
  MAP (mean arterial pressure): 82 ± 3 mmHg
  RPP (rate pressure product): 39 ± 1 mmHg/1000
[6]; Baseline
  HR (heart rate): 384 ± 5 beats/min
  MAP (mean arterial pressure): 121 ± 4 mmHg
  RPP (rate pressure product): 55 ± 2 mmHg/1000
[6]; capsazepine alone
  infarct size, agent alone, compared to control: no differences were noted for infarct size compared to the control group
[7]; treated 10 minutes prior to capsaicin
  changes in mitochondrial membrane potential induced by capsaicin: blocked
[8]; CPZ 3 mg/kg, CsA 2.5 mg/kg, 40 minutes prior to ischemia
  infarct size sparing effect of capsaicin: blocked the infarct size sparing effect of capsaicin
[8]; capsaicin 0.3 mg/kg, CPZ 3 mg/kg, CsA 2.5 mg/kg
  change in heart rate afforded by capsaicin: reduced the change in heart rate

## COc1cc(CNC(=O)CCCC/C=C/C(C)C)ccc1O [capsaicin]
[1]; 15 min Ischemia
  HR: 377 ± 11 beats/min
  MAP: 118 ± 10 mmHg
  RPP: 51 ± 5 mmHg/1000
[1]; 2 hrs Reperfusion
  HR: 363 ± 9 beats/min
  MAP: 87 ± 7 mmHg
  RPP: 39 ± 3 mmHg/1000
[1]; Baseline
  HR: 370 ± 6 beats/min
  MAP: 134 ± 3 mmHg
  RPP: 58 ± 2 mmHg/1000
[1]; given just prior to reperfusion, n=6/group, control 61±2%
  myocardial infarct size: 45±1%
[1]; single intravenous bolus 5 minutes prior to reperfusion
  infarct size reduction when compared to control: 27%
[7]; 0.1-10 μM, over 30 minutes
  mitochondrial membrane potential (TMRE): dose-dependently decreased mitochondrial membrane potential
[9]; 0.1 μM
  LDH release: reduced LDH release
[9]; 1 and 10 μM
  reduction of LDH release: did not occur
[3]; capsaicin 0.1 μM versus vehicle (DMSO)
  heart rate, isolated un-paced rat hearts: increased heart rate during the first 15 minutes of infusion
[8]; 0.1 mg/kg and 1.0 mg/kg
  infarct size: partial effects
[8]; 0.3 mg/kg
  infarct size: maximally decreased infarct size
[8]; 3.0 mg/kg
  myocardial infarct size: failed to reduce myocardial infarct size
[8]; 0.1-1.0 mg/kg
  myocardial infarct size: reduced myocardial infarct size
[8]; 0.1-3.0 mg/kg intravenously
  heart rate after intravenous administration: dose-dependently increased heart rate
[8]; [10]
  HR: 373 ± 10 beats/min
  MAP: 110 ± 7 mmHg
  RPP: 47 ± 4 mmHg/1000
[8]; [11]
  HR: 360 ± 21 beats/min
  MAP: 89 ± 14 mmHg
  RPP: 40 ± 7 mmHg/1000
[8]; [12]
  HR: 385 ± 15 beats/min
  MAP: 104 ± 10 mmHg
  RPP: 46 ± 5 mmHg/1000
[8]; [13]
  HR: 420 ± 9 beats/min
  MAP: 113 ± 5 mmHg
  RPP: 53 ± 3 mmHg/1000
[8]; [14]
  HR: 362 ± 6 beats/min
  MAP: 86 ± 5 mmHg
  RPP: 39 ± 2 mmHg/1000
[8]; [15]
  HR: 368 ± 6 beats/min
  MAP: 85 ± 3 mmHg
  RPP: 38 ± 2 mmHg/1000
[8]; [16]
  HR: 367 ± 3 beats/min
  MAP: 79 ± 3 mmHg
  RPP: 36 ± 2 mmHg/1000
[8]; [17]
  HR: 370 ± 4 beats/min
  MAP: 72 ± 4 mmHg
  RPP: 35 ± 2 mmHg/1000
[8]; Baseline, capsaicin 0.1 mg/kg
  HR: 377 ± 13 beats/min
  MAP: 128 ± 4 mmHg
  RPP: 60 ± 5 mmHg/1000
[8]; Baseline, capsaicin 0.3 mg/kg
  HR: 370 ± 11 beats/min
  MAP: 137 ± 7 mmHg
  RPP: 60 ± 5 mmHg/1000
[8]; Baseline, capsaicin 1.0 mg/kg
  HR: 353 ± 11 beats/min
  MAP: 131 ± 6 mmHg
  RPP: 55 ± 3 mmHg/1000
[8]; Baseline, capsaicin 3.0 mg/kg
  HR: 357 ± 8 beats/min
  MAP: 127 ± 4 mmHg
  RPP: 53 ± 2 mmHg/1000

Reference: patent US11136362B2, “Peptide modulators of specific calcineurin protein-protein interactions” (The Board of Trustees of the Leland Stanford Junior …, priority 2016, dated 2021)
